Test results from patent US20230010299A1, “HETEROCYCLIC TRPML1 AGONISTS” (LIBRA THERAPEUTICS, INC., priority 2019, published 2023).

What was measured:
TRPML1 [1] = target: T1, TRPML1 (Homo sapiens, UniProt Q9GZU1); assay: Cellular TRPML1 assay (FLIPR TETRA, GCaMP6f calcium read-out); assay type: cell-based; conditions: HEK T-REx/GCaMP6f/TRPML1 cells; Ca2+ response over 300 s, normalized to ML-SA1 50 μM; Ca2+ free or Optimem condition not given; read-out: Ec50 (Activity of TRPML1 agonists)
T1 construct: expressed in transfected cells
T1 sequence (Q9GZU1 whole entry): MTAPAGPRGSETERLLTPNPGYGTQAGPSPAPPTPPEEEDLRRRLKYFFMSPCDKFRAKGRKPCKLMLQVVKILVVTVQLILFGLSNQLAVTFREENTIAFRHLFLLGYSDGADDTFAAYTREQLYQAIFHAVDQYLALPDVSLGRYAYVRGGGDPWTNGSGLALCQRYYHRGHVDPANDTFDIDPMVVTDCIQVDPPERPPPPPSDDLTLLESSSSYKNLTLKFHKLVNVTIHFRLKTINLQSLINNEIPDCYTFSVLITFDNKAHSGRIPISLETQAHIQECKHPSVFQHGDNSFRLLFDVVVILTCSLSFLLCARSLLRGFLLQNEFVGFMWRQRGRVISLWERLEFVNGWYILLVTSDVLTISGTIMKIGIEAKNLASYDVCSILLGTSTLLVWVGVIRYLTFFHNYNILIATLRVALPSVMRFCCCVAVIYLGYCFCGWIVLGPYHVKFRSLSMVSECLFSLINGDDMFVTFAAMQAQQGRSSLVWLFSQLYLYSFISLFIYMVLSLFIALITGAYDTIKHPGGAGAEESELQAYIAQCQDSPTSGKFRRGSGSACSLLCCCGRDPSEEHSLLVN
Summary of the method: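 HEK T-REx cells stably expressing TRPML1 and GCaMP6f, assayed 24 h after seeding in Ca2+-free Tyrode's (pH 7.4) or Opti-MEM. Compounds injected on FLIPR Tetra (0.5% DMSO) in dose-response from 100 μM (1:2) or 50 μM (1:3.16); fluorescence kinetics 300 s, referenced to 50 μM ML-SA1 stimulator control.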

TRPML1 [2] = target: T1, TRPML1; assay: TRPML1 automated patch-clamp (QPatch 16X); assay type: cell-based; conditions: HEK T-REx/GcaMP6f/TRPML1 cells, current with compound/current in vehicle, extracellular pH 4.6
Protocol: TRPML1—Automated Patch-Clamp
HEK T-REx/GcaMP6f/TRPML1 cells were cultured in DMEM High Glucose (Lonza BioWhittaker cat. BE12-604F/U1; 500 mL) supplemented with Fetal Bovine Serum TET-FREE (Euroclone cat. EC S0182L; 50 mL, Penicillin-Streptomycin (BioWhittaker, cat. DE17-602E; 5 mL of 100× Solution), G418 (Sigma, cat. G8168; 0.25 mg/ml) and Zeocyn (InvivoGen, cat. ant-zn-1; 50 μg/ml).
HEK T-REx/GcaMP6f/TRPML1 cells were seeded 48 or 72 hours before experiment, at a concentration of 8*10^6/4*10^6 cells onto a T225 flask. Just before the experiments, cells were washed twice with D-PBS w/o Ca^2+/Mg^2+ (Euroclone cat. ECB4004L) and detached from the flask with trypsin-EDTA (Sigma cat. T4174; diluted 1/10). Cells were then re-suspended in the suspension solution: 25 mL EX-CELL ACF CHO medium(Sigma cat. C5467); 0.625 mL HEPES (Sigma cat. H0887); 0.25 mL of 100× Penicillin/Streptomycin (Euroclone cat. ECB3001D), 0.1 mL of Soybean Trypsin Inhibitor 10 mg/mL (Sigma cat. T6522) and placed on the QPatch 16X.
Dilution from stock were prepared just before the experiments in the extracellular solution (0.25% final DMSO concentration). DMSO solution was obtained from AppliChem (cat. A3672)
Patch Clamp Solutions: • Intracellular solution (mM): 120 CsMeSO3, 4 NaCl, 2 MgCl2, 10 EGTA, 20 HEPES, 2 Mg-ATP (pH 7.2 with CsOH). • Extracellular solution (mM): 140 NaGluconate, 5 KCl, 1 MgCl2, 2 CaCl2), 10 Glucose, 10 MES (pH 4.6 with HCl).
Patch Clamp Analysis—QPatch 16X
For the voltage clamp experiments on TRPML1, data were sampled at 5 KHz. After establishment of the seal and the passage in the whole cell configuration, the cells were held at −20 mV and the TRPML1 current was evoked using the voltage protocol illustrated in FIG. 2, applied every 5 sec. (50 ms at −20 mV; 20 ms at −120 mV, 1000 ms ramp from −120 to […]; 20 ms at +40 mV, and back to −20 mV); in the absence (vehicle period, i.e. 0.25% DMSO) and in the presence of increasing concentrations (3) of the compound under investigation.
Agonists: For data collection, the Sophion proprietary software was used and the analysis was performed off-line using Excel and GraphPad Prism (V 8.00). Results are reported in Table 6, expressed as TRPML1 current fold increase evoked by the compound under investigation (i.e. current in the presence of the compound/current in vehicle).

| Structure (SMILES) | EC50 (TRPML1 [1]) [µM] | Qpatch Assay TRPML1 agonism Current fold increase Mean ± SEM (n) (TRPML1 [2]; 0.3 μM compound) | Qpatch Assay TRPML1 agonism Current fold increase Mean ± SEM (n) (TRPML1 [2]; 3.0 μM compound) | Qpatch Assay TRPML1 agonism Current fold increase Mean ± SEM (n) (TRPML1 [2]; 30 μM compound) |
| --- | --- | --- | --- | --- |
| CN(C)S(=O)(=O)c1ccc(S(=O)(=O)NC2CCCCC2N2CCC(Oc3ccccc3)CC2)cc1 (single isomer, unassigned) [Example 63, N1,N1-dimethyl-N4-[2-(4-phenoxypiperidin-1-yl)cyclohexyl]benzene-1,4-disulfonamide] | 1.7 | 0.042 ± 0.153 (2) | 0.86 ± 0.60 (2) | 4.3 ± 0.9 (2) |
| CN(C)S(=O)(=O)c1ccc(S(=O)(=O)Nc2ccccc2N2CCC(Oc3ccccc3)CC2)cc1 [Example 24, N1,N1-dimethyl-N4-[2-(4-phenoxypiperidin-1-yl)phenyl]benzene-1,4-disulfonamide] | 2.1 | 4.6 ± 1.8 (4) | 168.8 ± 96.1 (4) | 687.7 (1) |
| CN(C)S(=O)(=O)c1ccc(S(=O)(=O)Nc2ccccc2N2CCC(OCc3ccccc3)CC2)cc1 [Example 25, N4-{2-[4-(benzyloxy)piperidin-1-yl]phenyl}-N1,N1-dimethylbenzene-1,4-disulfonamide] | 1.8 | 3.5 ± 1.8 (3) | 177.1 ± 38.2 (3) | 1013.8 (1) |
| COC1CCN(c2ccccc2NS(=O)(=O)c2ccc(S(=O)(=O)N(C)C)cc2)CC1 [Example 26, N4-[2-(4-methoxypiperidin-1-yl)phenyl]-N1,N1-dimethylbenzene-1,4-disulfonamide] | 4.5 | 0.46 ± 0.16 (3) | 41.4 ± 21.1 | 390 ± 158 (3) |
| COC(=O)N1CCN(c2ccccc2NS(=O)(=O)c2ccc(S(=O)(=O)N(C)C)cc2)CC1 [Example 52, methyl 4-{2-[4-(dimethylsulfamoyl)benzenesulfonamido]phenyl}piperazine-1-carboxylate] | 7.2 | 1.3 ± 1.0 (3) | 10.4 ± 3.8 (3) | 472.5 ± 267.9 (3) |
| CN(C)S(=O)(=O)c1ccc(S(=O)(=O)Nc2ccccc2N2CCN(C(=O)OCC(F)(F)F)CC2)cc1 [Example 53, 2,2,2-trifluoroethyl4-{2-[4-(dimethylsulfamoyl)benzenesulfonamido]phenyl}piperazine-1-carboxylate] | 3.6 | 1.9 ± 1.6 (3) | 88.3 ± 59.9 (3) | 257.4 ± 190.7 (3) |
| CCOC(=O)N1CCN(c2ccccc2NS(=O)(=O)c2ccc(S(=O)(=O)N(C)C)cc2)CC1 [Example 70, ethyl4-{2-[4-(dimethylsulfamoyl)benzenesulfonamido]phenyl}piperazine-1-carboxylate] | 3.2 | 0.5 ± 0.3 (3) | 22.5 ± 10.6 (3) | 656.7 ± 150.5 (3) |
| CN(C)S(=O)(=O)c1ccc(S(=O)(=O)Nc2ccccc2N2CCN(C(=O)c3ccccc3)CC2)cc1 [Example 73, N4-[2-(4-benzoylpiperazin-1-yl)phenyl]-N1,N1-dimethylbenzene-1,4-disulfonamide] | 6.4 | −0.070 | −0.31 | 11.3 |
| CN(C)S(=O)(=O)c1ccc(S(=O)(=O)NCc2ccccc2N2CCCCC2)cc1 [Example 74, N1,N1-dimethyl-N4-{[2-(piperidin-1-yl)phenyl]methyl}benzene-1,4-disulfonamide] | 3.2 | 4.3 ± 2.0 (6) | 356 ± 69.7 (6) | 639 + 241 (3) |
| CN(C)S(=O)(=O)c1ccc(S(=O)(=O)Nc2ccccc2C2CCN(C(=O)OC(C)(C)C)CC2)cc1 [Example 78, f-butyl 4-{2-[4-(dimethylsulfamoyl)benzenesulfonamido]phenyl} piperidine-1-carboxylate] | 6.9 | 0.68 ± 0.34 (3) | 16.5 ± 9.1 (3) | 166 ± 75.7 (3) |
| CCCN(C)C(=O)N1CCN(c2ccccc2NS(=O)(=O)c2ccc(S(=O)(=O)N(C)C)cc2)CC1 [Example 82, 4-{2-[4-(dimethylsulfamoyl)benzenesulfonamido]phenyl}-N-methyl-N-propylpiperazine-1-carboxamide] | 5.9 | 2.5 ± 1.3 (3) | 12.5 ± 8.6 (3) | 138 ± 55.7 (3) |
| Cc1ccc(S(=O)(=O)Nc2ccccc2N2CCN(C(=O)OC(C)(C)C)CC2)cc1 [Example 83, t-butyl 4-[2-(4-methylbenzenesulfonamido)phenyl]piperazine-1-carboxylate] | 1.8 | 70.2 ± 13.8 (4) | 125.0 ± 31.0 (4) | 140.3 ± 36.8 (4) |
| COc1ccc(S(=O)(=O)Nc2ccccc2N2CCN(C(=O)OC(C)(C)C)CC2)cc1 [Example 84, t-butyl 4-[2-(4-methoxybenzenesulfonamido)phenyl]piperazine-1-carboxylate] | 4.2 | 8.6 ± 1.3 (2) | 32.9 ± 3.5 (2) | 42.7 ± 1.4 (2) |
| CN(C)S(=O)(=O)c1ccc(S(=O)(=O)Nc2ccccc2N2CCCCCC2)cc1 [Example 85, N4-[2-(azepan-1-yl)phenyl]-N 1 ,N1-dimethylbenzene-1,4-disulfonamide] | 1.6 | 17.7 ± 5.5 (4) | 206 ± 167 (2) | 260 ± 202 (2) |
| CC(C)CNC(=O)C1CCN(c2ccccc2NS(=O)(=O)c2ccc(S(=O)(=O)N(C)C)cc2)CC1 [Example 88, 1-{2-[4-(dimethylsulfamoyl)benzenesulfonamido]phenyl}-N-(2-methylpropyl)piperidine-4-carboxamide] | 6.5 | −0.066 ± 0.080 (3) | 3.9 ± 2.5 (3) | 125 ± 75.3 (3) |
